According to patent US11639343B2, “Compounds targeting and degrading BCR-ABL protein and its antitumor application” (ShanghaiTech University, priority 2019, dated 2023):
Read-outs that look alike come from different tables or passages of the source.

What was measured:
K562 (BCR-ABL+) cells = test: CCK-8 proliferation inhibition, K562 cells; type: cell-based, human; details: read-out: Proliferative inhibitory activity (IC50, nM) K562 (BCR-ABL+);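 note: Ten-point threefold dilution series starting at 10 µM, absorbance at 450 nm after 2 h with CCK-8, DMSO as negative control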
U937 (BCR-ABL-) cells = test: CCK-8 proliferation inhibition, U937 cells; type: cell-based, human; details: read-out: Proliferative inhibitory activity (IC50, nM) U937 (BCR-ABL-);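 note: Ten-point threefold dilution series, absorbance at 450 nm after 2 h with CCK-8 reagent, DMSO as negative control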
HEK293 (BCR-ABL-) cells = test: CCK-8 proliferation inhibition, HEK293 cells; details: read-out: Proliferative inhibitory activity (IC50, nM) HEK293 (BCR-ABL-);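 note: Ten-point threefold dilution series starting at 10 µM, CCK-8 absorbance at 450 nm read after 2 h reagent incubation, DMSO-treated cells as negative control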
[1] = Homo sapiens, K562, 48 h, CCK-8, 48 hours of drug treatment
[2] = Homo sapiens, U-937, CCK-8, 48 hours of drug treatment, highest concentration 10 μM
[3] = CCK-8, 48 hours of drug treatment, highest concentration 10 μM

| SMILES | IC50 (K562 (BCR-ABL+) cells; [1]) | IC50 (U937 (BCR-ABL-) cells; [2]) | IC50 (K562 (BCR-ABL+) cells; Homo sapiens, K562, 48 h) | IC50 (U937 (BCR-ABL-) cells; Homo sapiens, U-937, 48 h) | IC50 (K562 (BCR-ABL+) cells; CCK-8, 48 hours of drug treatment) | IC50 (U937 (BCR-ABL-) cells; [3]) | IC50 (HEK293 (BCR-ABL-) cells; Homo sapiens, HEK293, 48 h) | IC50 (HEK293 (BCR-ABL-) cells; [3]) |
| --- | --- | --- | --- | --- | --- | --- | --- | --- |
| COc1cc(Nc2c(C#N)cnc3cc(OCCCN4CCN(C)CC4)c(OC)cc23)c(Cl)cc1Cl [Bosutinib, reference compound] | – | – | 29.6 nM | > 10000 nM | – | – | – | – |
| Cc1nc(Nc2ncc(C(=O)Nc3c(C)cccc3Cl)s2)cc(N2CCN(C(=O)CCCCCCCCCCCCCCC(=O)N[C@H](C(=O)N3C[C@H](O)C[C@H]3C(=O)NCc3ccc(-c4scnc4C)cc3)C(C)(C)C)CC2)n1 [SIAIS164194, N-(2-chloro-6-methylphenyl)-2-((6-(4-(16-(((S)-1-((2S,4R)-4-hydroxy-2-((4-(4-methylthiazol-5-yl)benzyl)carbamoyl)pyrrolidin-1-yl)-3,3-dimethyl-1-oxobutan-2-yl)amino)-16-oxohexadecanoyl)piperazin-1-yl)-2-methylpyrimidin-4-yl)amino)thiazole-5-carboxamide] | 32.3 nM | > 10000 nM | – | – | – | – | > 10000 nM | – |
| Cc1nc(Nc2ncc(C(=O)Nc3c(C)cccc3Cl)s2)cc(N2CCN(C(=O)CCCc3cn(CCCC(=O)N[C@H](C(=O)N4C[C@H](O)C[C@H]4C(=O)NCc4ccc(-c5scnc5C)cc4)C(C)(C)C)nn3)CC2)n1 [SIAIS164134, N-(2-chloro-6-methylphenyl)-2-((6-(4-(4-(1-(4-(((S)-1-((2S,4R)-4-hydroxy-2-((4-(4-methylthiazol-5-yl)benzyl)carbamoyl)pyrrolidin-1-yl)-3,3-dimethyl-1-oxobutan-2-yl)amino)-4-oxobutyl)-1H-1,2,3-triazol-4-yl)butanoyl)piperazin-1-yl)-2-methylpyrimidin-4-yl)amino)thiazole-5-carboxamide] | 12 nM | > 10000 nM | – | – | – | – | > 10000 nM | – |
| Cc1nc(Nc2ncc(C(=O)Nc3c(C)cccc3Cl)s2)cc(N2CCN(C(=O)CCCCCOCCOCCOCCCCCC(=O)N[C@H](C(=O)N3C[C@H](O)C[C@H]3C(=O)NCc3ccc(-c4scnc4C)cc3)C(C)(C)C)CC2)n1 [SIAIS180147, N-(2-chloro-6-methylphenyl)-2-((6-(4-((S)-3-((2S,4R)-4-hydroxy-2-((4-(4-methylthiazol-5-yl)benzyl)carbamoyl)pyrrolidine-1-carbonyl)-2,2-dimethyl-5-oxo-11,14,17-trioxa-4-azatricosan-23-oyl)piperazin-1-yl)-2-methylpyrimidin-4-yl)amino)thiazole-5-carboxamide] | 14.9 nM | > 10000 nM | – | – | – | – | > 10000 nM | – |

Second part, led by results:

| IC50 (K562 (BCR-ABL+) cells; [1]) | IC50 (U937 (BCR-ABL-) cells; [2]) | IC50 (K562 (BCR-ABL+) cells; Homo sapiens, K562, 48 h) | IC50 (U937 (BCR-ABL-) cells; Homo sapiens, U-937, 48 h) | IC50 (K562 (BCR-ABL+) cells; CCK-8, 48 hours of drug treatment) | IC50 (U937 (BCR-ABL-) cells; [3]) | SMILES | IC50 (HEK293 (BCR-ABL-) cells; Homo sapiens, HEK293, 48 h) | IC50 (HEK293 (BCR-ABL-) cells; [3]) |
| --- | --- | --- | --- | --- | --- | --- | --- | --- |
| 14.4 nM | > 10000 nM | – | – | – | – | Cc1nc(Nc2ncc(C(=O)Nc3c(C)cccc3Cl)s2)cc(N2CCN(C(=O)CCCCCCCCCCCCC(=O)N[C@H](C(=O)N3C[C@H](O)C[C@H]3C(=O)NCc3ccc(-c4scnc4C)cc3)C(C)(C)C)CC2)n1 [SIAIS164193, N-(2-chloro-6-methylphenyl)-2-((6-(4-(14-(((S)-1-((2S,4R)-4-hydroxy-2-((4-(4-methylthiazol-5-yl)benzyl)carbamoyl)pyrrolidin-1-yl)-3,3-dimethyl-1-oxobutan-2-yl)amino)-14-oxotetradecanoyl)piperazin-1-yl)-2-methylpyrimidin-4-yl)amino)thiazole-5-carboxamide] | > 10000 nM | – |
| 1610 nM | > 10000 nM | – | – | – | – | Cc1nc(Nc2ncc(C(=O)Nc3c(C)cccc3Cl)s2)cc(N2CCN(C(=O)CCOCCOCCOCCOCCOCCC(=O)N[C@H](C(=O)N3C[C@H](O)C[C@H]3C(=O)NCc3ccc(-c4scnc4C)cc3)C(C)(C)C)CC2)n1 [SIAIS151079, N-(2-chloro-6-methylphenyl)-2-((6-(4-((S)-21-((2S,4R)-4-hydroxy-2-((4-(4-methylthiazol-5-yl)benzyl)carbamoyl)pyrrolidine-1-carbonyl)-22,22-dimethyl-19-oxo-4,7,10,13,16-pentaoxa-20-azatricosanoyl)piperazin-1-yl)-2-methylpyrimidin-4-yl)amino)thiazole-5-carboxamide] | > 10000 nM | – |
| 72 nM | > 10000 nM | – | – | – | – | Cc1nc(Nc2ncc(C(=O)Nc3c(C)cccc3Cl)s2)cc(N2CCN(C(=O)CCCCNC(=O)CCCCCCCCC(=O)N[C@H](C(=O)N3C[C@H](O)C[C@H]3C(=O)NCc3ccc(-c4scnc4C)cc3)C(C)(C)C)CC2)n1 [SIAIS184032, N1-(5-(4-(6-((5-((2-chloro-6-methylphenyl)carbamoyl)thiazol-2-yl)amino)-2-methylpyrimidin-4-yl)piperazin-1-yl)-5-oxopentyl)-N10-((S)-1-((2S,4R)-4-hydroxy-2-((4-(4-methylthiazol-5-yl)benzyl)carbamoyl)pyrrolidin-1-yl)-3,3-dimethyl-1-oxobutan-2-yl)decanediamide] | > 10000 nM | – |
| 6.8 nM | > 10000 nM | – | – | – | – | Cc1nc(Nc2ncc(C(=O)Nc3c(C)cccc3Cl)s2)cc(N2CCN(C(=O)CCNc3cccc4c3C(=O)N(C3CCC(=O)NC3=O)C4=O)CC2)n1 (centres unmarked) [SIAIS151074, N-(2-chloro-6-methylphenyl)-2-((6-(4-(3-((2-(2,6-dioxopiperidin-3-yl)-1,3-dioxoisoindolin-4-yl)amino)propanoyl)piperazin-1-yl)-2-methylpyrimidin-4-yl)amino)thiazole-5-carboxamide] | > 10000 nM | – |
| 3430 nM | > 10000 nM | – | – | – | – | Cc1nc(Nc2ncc(C(=O)Nc3c(C)cccc3Cl)s2)cc(N2CCN(C(=O)CCOCCOCCOCCC(=O)N[C@H](C(=O)N3C[C@H](O)C[C@H]3C(=O)NCc3ccc(-c4scnc4C)cc3)C(C)(C)C)CC2)n1 [SIAIS151077, N-(2-chloro-6-methylphenyl)-2-((6-(4-((S)-15-((2S,4R)-4-hydroxy-2-((4-(4-methylthiazol-5-yl)benzyl)carbamoyl)pyrrolidine-1-carbonyl)-16,16-dimethyl-13-oxo-4,7,10-trioxa-14-azaheptadecanoyl)piperazin-1-yl)-2-methylpyrimidin-4-yl)amino)thiazole-5-carboxamide] | > 10000 nM | – |
| – | – | – | – | 670 nM | > 10000 nM | Cc1nc(Nc2ncc(C(=O)Nc3c(C)cccc3Cl)s2)cc(N2CCN(C(=O)COCCOCC(=O)N[C@H](C(=O)N3C[C@H](O)C[C@H]3C(=O)NCc3ccc(-c4scnc4C)cc3)C(C)(C)C)CC2)n1 [SIAIS151076, N-(2-chloro-6-methylphenyl)-2-((6-(4-(2-(2-(2-(((S)-1-((2S,4R)-4-hydroxy-2-((4-(4-methylthiazol-5-yl)benzyl)carbamoyl)pyrrolidin-1-yl)-3,3-dimethyl-1-oxobutan-2-yl)amino)-2-oxoethoxy)ethoxy)acetyl)piperazin-1-yl)-2-methylpyrimidin-4-yl)amino)thiazole-5-carboxamide] | – | > 10000 nM |
| 811 nM | > 10000 nM | – | – | – | – | COc1cc(Nc2c(C#N)cnc3cc(OCCCN4CCN(C(=O)CC(=O)Nc5cccc6c5CN(C5CCC(=O)NC5=O)C6=O)CC4)c(OC)cc23)c(Cl)cc1Cl (centres unmarked) [SIAIS164104, 3-(4-(3-((3-cyano-4-((2,4-dichloro-5-methoxyphenyl)amino)-6-methoxyquinolin-7-yl)oxy)propyl)piperazin-1-yl)-N-(2-(2,6-dioxopiperidin-3-yl)-1-oxoisoindolin-4-yl)-3-oxopropanamide] | > 10000 nM | – |
